Tested on: 922993-354-T-J3-PDC complex spheroids, viability, % test/control
Assay: Anticancer human tumor 922993-354-T-J3-PDC patient-derived endometrial carcinoma cell line growth inhibition [CLK]
Conditions: for IC50: curve of first compound; for viability, T/C: stronger effect = lower value
Summary of the method: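 Multi-cell-type spheroids combined patient-derived tumor cells with HUVEC endothelial cells and human mesenchymal stem cells. Paired agents were dosed in half-log steps down from about clinical Cmax, or from 10 microM where Cmax was unknown.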
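Further: spheroids exposed to the agents for 7 days before readout.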

`COc1ccc([C@@H](O)c2cc(-c3ncnc4cc(N5CCOCC5)ccc34)c(F)cc2Cl)nn1` + CNC(=O)c1ccc(Nc2nc(OC3CCCC3)c3c(-c4ccc5nc(C)oc5c4)c[nH]c3n2)c(OC)c1 was tested. Which IC50 (second compound 0.0316 µM) did it give?
The IC50 was greater than 10000 nM.

And the IC50 (second compound 0.1 µM)?
Its IC50 is greater than 10000 nM.

What about the IC50 (second compound 0.316 µM) of the same compound?
Its IC50 is greater than 10000 nM.

What about the IC50 (second compound 1 µM) of the same compound?
The IC50 was less than 31.6 nM.

What about the IC50 (second compound 3.16 µM) of the same compound?
Its IC50 is less than 31.6 nM.

What about the IC50 (second compound 10 µM) of the same compound?
The IC50 was less than 31.6 nM.

What about the viability, T/C (second compound 0.0316 µM, first compound 0.0316 µM) of the same compound?
The viability, T/C was 113%.

And the viability, T/C (second compound 0.0316 µM, first compound 0.1 µM)?
Its viability, T/C is 112%.

And the viability, T/C (second compound 0.0316 µM, first compound 0.316 µM)?
The viability, T/C was 130%.

And the viability, T/C (second compound 0.0316 µM, first compound 1 µM)?
The viability, T/C was 121%.

And the viability, T/C (second compound 0.0316 µM, first compound 3.16 µM)?
Its viability, T/C is 113%.

And the viability, T/C (second compound 0.0316 µM, first compound 10 µM)?
The viability, T/C was 91.2%.

And the viability, T/C (second compound 0.1 µM, first compound 0.0316 µM)?
Its viability, T/C is 104%.

What about the viability, T/C (second compound 0.1 µM, first compound 0.1 µM) of the same compound?
Its viability, T/C is 110%.

What about the viability, T/C (second compound 0.1 µM, first compound 0.316 µM) of the same compound?
Its viability, T/C is 99.7%.

And the viability, T/C (second compound 0.1 µM, first compound 1 µM)?
The viability, T/C was 125%.

What about the viability, T/C (second compound 0.1 µM, first compound 3.16 µM) of the same compound?
The viability, T/C was 104%.

What about the viability, T/C (second compound 0.1 µM, first compound 10 µM) of the same compound?
The viability, T/C was 92.5%.

What about the viability, T/C (second compound 0.316 µM, first compound 0.0316 µM) of the same compound?
The viability, T/C was 64.3%.

And the viability, T/C (second compound 0.316 µM, first compound 0.1 µM)?
Its viability, T/C is 64.5%.

And the viability, T/C (second compound 0.316 µM, first compound 0.316 µM)?
The viability, T/C was 66.6%.

What about the viability, T/C (second compound 0.316 µM, first compound 1 µM) of the same compound?
The viability, T/C was 67.8%.

And the viability, T/C (second compound 0.316 µM, first compound 3.16 µM)?
The viability, T/C was 87.1%.

What about the viability, T/C (second compound 0.316 µM, first compound 10 µM) of the same compound?
The viability, T/C was 71.9%.

What about the viability, T/C (second compound 1 µM, first compound 0.0316 µM) of the same compound?
The viability, T/C was 39.3%.

What about the viability, T/C (second compound 1 µM, first compound 0.1 µM) of the same compound?
The viability, T/C was 40.6%.

What about the viability, T/C (second compound 1 µM, first compound 0.316 µM) of the same compound?
The viability, T/C was 40%.

And the viability, T/C (second compound 1 µM, first compound 1 µM)?
The viability, T/C was 40.9%.

And the viability, T/C (second compound 1 µM, first compound 3.16 µM)?
The viability, T/C was 52.1%.

What about the viability, T/C (second compound 1 µM, first compound 10 µM) of the same compound?
Its viability, T/C is 56.8%.

What about the viability, T/C (second compound 3.16 µM, first compound 0.0316 µM) of the same compound?
The viability, T/C was 31.8%.

What about the viability, T/C (second compound 3.16 µM, first compound 0.1 µM) of the same compound?
Its viability, T/C is 28.8%.

And the viability, T/C (second compound 3.16 µM, first compound 0.316 µM)?
The viability, T/C was 34.8%.

And the viability, T/C (second compound 3.16 µM, first compound 1 µM)?
Its viability, T/C is 41.2%.

And the viability, T/C (second compound 3.16 µM, first compound 3.16 µM)?
Its viability, T/C is 45.8%.

And the viability, T/C (second compound 3.16 µM, first compound 10 µM)?
Its viability, T/C is 41%.

What about the viability, T/C (second compound 10 µM, first compound 0.0316 µM) of the same compound?
The viability, T/C was 34%.

What about the viability, T/C (second compound 10 µM, first compound 0.1 µM) of the same compound?
The viability, T/C was 30.6%.

What about the viability, T/C (second compound 10 µM, first compound 0.316 µM) of the same compound?
Its viability, T/C is 41.6%.

And the viability, T/C (second compound 10 µM, first compound 1 µM)?
Its viability, T/C is 33.8%.

What about the viability, T/C (second compound 10 µM, first compound 3.16 µM) of the same compound?
Its viability, T/C is 44.2%.

And the viability, T/C (second compound 10 µM, first compound 10 µM)?
Its viability, T/C is 37.1%.

How did the IC50 (second compound 0.0316 µM) turn out when `C=CC(=O)Nc1cc(Nc2nccc(-c3cn(C)c4ccccc34)n2)c(OC)cc1N(C)CCN(C)C` + CN1CCN(c2cc(C(=O)Nc3cc4cc(-c5cnn(C)c5)ccc4cn3)ccn2)CC1 was run?
Its IC50 is greater than 300 nM.

What about the IC50 (second compound 0.1 µM) of the same compound?
Its IC50 is greater than 300 nM.

And the IC50 (second compound 0.316 µM)?
The IC50 was less than 0.949 nM.

And the IC50 (second compound 1 µM)?
The IC50 was less than 0.949 nM.

And the IC50 (second compound 3.16 µM)?
Its IC50 is less than 0.949 nM.

And the IC50 (second compound 10 µM)?
Its IC50 is less than 0.949 nM.

What about the viability, T/C (second compound 0.0316 µM, first compound 0.000949 µM) of the same compound?
Its viability, T/C is 98.9%.

And the viability, T/C (second compound 0.0316 µM, first compound 0.003 µM)?
Its viability, T/C is 98.4%.

What about the viability, T/C (second compound 0.0316 µM, first compound 0.00949 µM) of the same compound?
The viability, T/C was 101%.

What about the viability, T/C (second compound 0.0316 µM, first compound 0.03 µM) of the same compound?
The viability, T/C was 108%.

What about the viability, T/C (second compound 0.0316 µM, first compound 0.0949 µM) of the same compound?
The viability, T/C was 97.4%.

And the viability, T/C (second compound 0.0316 µM, first compound 0.3 µM)?
The viability, T/C was 73.1%.

What about the viability, T/C (second compound 0.1 µM, first compound 0.000949 µM) of the same compound?
The viability, T/C was 96.7%.

What about the viability, T/C (second compound 0.1 µM, first compound 0.003 µM) of the same compound?
Its viability, T/C is 97.7%.

And the viability, T/C (second compound 0.1 µM, first compound 0.00949 µM)?
The viability, T/C was 83.7%.

What about the viability, T/C (second compound 0.1 µM, first compound 0.03 µM) of the same compound?
The viability, T/C was 69%.

And the viability, T/C (second compound 0.1 µM, first compound 0.0949 µM)?
The viability, T/C was 81%.

And the viability, T/C (second compound 0.1 µM, first compound 0.3 µM)?
The viability, T/C was 63.3%.

And the viability, T/C (second compound 0.316 µM, first compound 0.000949 µM)?
Its viability, T/C is 41.8%.

What about the viability, T/C (second compound 0.316 µM, first compound 0.003 µM) of the same compound?
Its viability, T/C is 45.5%.

And the viability, T/C (second compound 0.316 µM, first compound 0.00949 µM)?
Its viability, T/C is 44.2%.

And the viability, T/C (second compound 0.316 µM, first compound 0.03 µM)?
Its viability, T/C is 22.8%.

And the viability, T/C (second compound 0.316 µM, first compound 0.0949 µM)?
Its viability, T/C is 31.7%.

What about the viability, T/C (second compound 0.316 µM, first compound 0.3 µM) of the same compound?
The viability, T/C was 27.8%.

And the viability, T/C (second compound 1 µM, first compound 0.000949 µM)?
Its viability, T/C is 0.12%.

What about the viability, T/C (second compound 1 µM, first compound 0.003 µM) of the same compound?
The viability, T/C was 0.13%.

And the viability, T/C (second compound 1 µM, first compound 0.00949 µM)?
Its viability, T/C is 1.12%.

What about the viability, T/C (second compound 1 µM, first compound 0.03 µM) of the same compound?
Its viability, T/C is 0.1%.

And the viability, T/C (second compound 1 µM, first compound 0.0949 µM)?
Its viability, T/C is 0.1%.

And the viability, T/C (second compound 1 µM, first compound 0.3 µM)?
Its viability, T/C is 1.55%.

And the viability, T/C (second compound 3.16 µM, first compound 0.000949 µM)?
The viability, T/C was 0.11%.

What about the viability, T/C (second compound 3.16 µM, first compound 0.003 µM) of the same compound?
The viability, T/C was 0.14%.

What about the viability, T/C (second compound 3.16 µM, first compound 0.00949 µM) of the same compound?
Its viability, T/C is 0.14%.

And the viability, T/C (second compound 3.16 µM, first compound 0.03 µM)?
The viability, T/C was 0.7%.

What about the viability, T/C (second compound 3.16 µM, first compound 0.0949 µM) of the same compound?
The viability, T/C was 0.13%.

And the viability, T/C (second compound 3.16 µM, first compound 0.3 µM)?
Its viability, T/C is 1.62%.

And the viability, T/C (second compound 10 µM, first compound 0.000949 µM)?
The viability, T/C was 0.15%.

What about the viability, T/C (second compound 10 µM, first compound 0.003 µM) of the same compound?
The viability, T/C was 0.17%.

What about the viability, T/C (second compound 10 µM, first compound 0.00949 µM) of the same compound?
Its viability, T/C is 1.16%.

And the viability, T/C (second compound 10 µM, first compound 0.03 µM)?
The viability, T/C was 0.16%.

And the viability, T/C (second compound 10 µM, first compound 0.0949 µM)?
Its viability, T/C is 1.05%.

What about the viability, T/C (second compound 10 µM, first compound 0.3 µM) of the same compound?
Its viability, T/C is 0.62%.
